Read-outs that look alike come from different tables or passages of the source.
Legend:
[1] = system: HT-29 human colon cancer cell line; assay: Antiproliferative assay, HT-29
Method: (§1) For a rigorous assessment, the widely accepted MTT assay [63, 64] was employed. Using Doxorubicin, a well-established drug, as the reference standard ensures a benchmark for the synthesized compounds, allowing a contextual understanding of their efficacy.
(§2) The MTT assay [63, 64] was employed for this assessment, with Doxorubicin as the reference drug.
(§3) 24h followed by the addition of synthesized compounds (in 200 μL medium to yield a final concentration of 0.1% (v/v) dimethyl sulfoxide) into individual wells of the plates. Four wells were designated to a single compound. The plates were allowed to incubate at 37°C for 96 h. After wards, the medium was aspirated and 3-[4,5-dimethylthiazol-2-yl]-2,5-diphenyltetrazolium bromide (MTT) (0.4 mg/mL) in medium was added to each well and subsequently incubated for 3 h. The medium was aspirated and 150 μL dimethyl sulfoxide (DMSO) was added to each well.
(§4) The plates were vortexed followed by the measurement of absorbance at 540 nm on a microplate

[2] = system: four cancer cell lines (A-549, MCF-7, Panc-1, HT-29); assay: Antiproliferative assay, average over four cancer cell lines (GI50); details: read-out: Average IC50 (GI50)
Method: as §1, §2, §3, §4

[3] = system: MCF-7 human breast adenocarcinoma cell line; assay: Antiproliferative assay, MCF-7
Method: as §1, §2, §3, §4

[4] = system: A-549 human lung carcinoma cell line; assay: Antiproliferative assay, A-549
Method: as §1, §2, §3, §4

[5] = system: Panc-1 human pancreatic cancer cell line; assay: Antiproliferative assay, Panc-1
Method: as §1, §2, §3, §4

MCF-10A cells = assay: Cell viability (cytotoxicity) MTT assay in non-tumorigenic MCF-10A cells; type: cell-based, human; details: 50 µM, 4 days
BRAF^V600E [6] = target: T1, BRAF^V600E (Mus musculus, UniProt P28028, V585E); assay: BRAF V600E kinase inhibitory assay; type: biochemical; details: for IC50: BRAF V600E, mean ± SEM, read-out: BRAF Inhibition IC50 ± SEM; for fold less potent than Erlotinib, BRAF^V600E: ratio of IC50 to Erlotinib
T1 construct: Mouse full-length GST-tagged; purchased Invitrogen PV3849
T1 sequence (P28028 whole entry V585E): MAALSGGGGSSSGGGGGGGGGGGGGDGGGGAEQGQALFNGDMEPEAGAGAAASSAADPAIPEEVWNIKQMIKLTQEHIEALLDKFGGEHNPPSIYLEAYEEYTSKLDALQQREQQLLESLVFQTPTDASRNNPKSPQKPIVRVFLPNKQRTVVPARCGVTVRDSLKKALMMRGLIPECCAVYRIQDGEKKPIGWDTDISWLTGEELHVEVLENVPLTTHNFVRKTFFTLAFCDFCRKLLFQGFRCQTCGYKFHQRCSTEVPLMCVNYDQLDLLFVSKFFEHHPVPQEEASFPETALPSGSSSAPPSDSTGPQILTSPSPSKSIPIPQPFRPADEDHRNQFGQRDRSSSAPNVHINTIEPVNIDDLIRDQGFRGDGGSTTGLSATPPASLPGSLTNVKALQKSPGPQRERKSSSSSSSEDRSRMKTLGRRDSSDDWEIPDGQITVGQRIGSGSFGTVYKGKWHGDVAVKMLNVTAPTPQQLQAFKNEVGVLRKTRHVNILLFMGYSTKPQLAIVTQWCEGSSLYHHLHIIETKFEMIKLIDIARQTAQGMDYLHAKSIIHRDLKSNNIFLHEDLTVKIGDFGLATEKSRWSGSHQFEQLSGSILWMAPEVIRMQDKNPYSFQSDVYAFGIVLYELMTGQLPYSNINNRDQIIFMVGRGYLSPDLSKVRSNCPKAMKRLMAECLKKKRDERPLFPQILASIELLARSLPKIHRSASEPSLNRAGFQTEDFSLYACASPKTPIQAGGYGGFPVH
Excerpt: Mouse full-length GST-tagged
developed using a phosphor screen.

EGFR [7] = target: T2, EGFR (Homo sapiens, UniProt P00533); assay: EGFR-TK inhibitory assay; details: for fold less potent than Erlotinib, EGFR: ratio of IC50 to Erlotinib
T2 sequence (P00533 669-1210): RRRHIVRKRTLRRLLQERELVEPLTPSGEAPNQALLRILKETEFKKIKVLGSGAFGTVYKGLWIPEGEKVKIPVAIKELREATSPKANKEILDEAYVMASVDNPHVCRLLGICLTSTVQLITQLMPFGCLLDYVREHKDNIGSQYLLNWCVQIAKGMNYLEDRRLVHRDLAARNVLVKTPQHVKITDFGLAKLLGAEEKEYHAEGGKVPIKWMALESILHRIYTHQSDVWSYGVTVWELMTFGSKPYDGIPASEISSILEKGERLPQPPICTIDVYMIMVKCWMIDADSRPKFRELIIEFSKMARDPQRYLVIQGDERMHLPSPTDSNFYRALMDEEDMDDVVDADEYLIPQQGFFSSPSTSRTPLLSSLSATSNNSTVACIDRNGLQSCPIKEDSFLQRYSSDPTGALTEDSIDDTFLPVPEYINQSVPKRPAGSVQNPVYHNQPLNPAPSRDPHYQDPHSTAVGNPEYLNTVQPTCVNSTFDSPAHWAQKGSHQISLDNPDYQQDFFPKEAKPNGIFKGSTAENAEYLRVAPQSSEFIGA
Method: Baculoviral expression vectors including pBlueBacHis2B and pFASTBacHTc were used
5ʹ upstream to the EGFR sequence comprised a sequence that encoded (His)6.
Sf-9cells were infected for 72h for protein expression. The pellets of Sf-9 cells were solubilized in
a buffer containing sodium vanadate (100 μM), aprotinin (10 μg/mL), triton (1%), HEPES buffer(50mM), ammonium molybdate (10 μM), benzamidine HCl (16 μg/mL), NaCl (10mM), leupeptin (10 μg/mL) and pepstatin (10 μg/mL) at 0°C for 20 min at pH 7.4, followed by centrifugation for 20 min. To eliminate the nonspecifically bound material, a Ni-NTA super flow packed column was used to pass through and wash the crude extract supernatant first with
10mMand then with 100 mM imidazole. Histidine-linked proteins were first eluted with 250 and
then with 500 mM imidazole subsequent to dialysis against NaCl (50 mM), HEPES (20 mM),
glycerol (10%) and 1 μg/mL each of aprotinin, leupeptin and pepstatin for 120 min. The
purification was performed either at 4 °C or on ice. To record autophosphorylation level, EGFR
kinase assay was carried out based on DELFIA/Time-Resolved Fluorometry. The compounds
were first dissolved in DMSO absolute, subsequent to dilution t o appropriate concentration using
HEPES(25 mM) at pH 7.4. Each compound (10 μL) was incubated with recombinant enzyme (10
μL, 5ng for EGFR, 1:80 dilution in 100 mM HEPES) for 10 min at 25 °C, subsequent to the addition of5X buffer (10 μL, containing 2 mM MnCl2, 100 μM Na3VO4, 20 mM HEPES and 1
mM DTT)and ATP-MgCl2 (20 μL, containing 0.1 mM ATP and 50 mM MgCl2) and incubation
for 1h. The negative and positive controls were included in each plate by the incubation of enzyme
either with or without ATP-MgCl2. The liquid was removed after incubation and the plates were
washed thrice using a wash buffer. Europium-tagged anti phosphotyrosine antibody (75 μL, 400
ng) was added to each well followed by incubation of 1h and then washing of the plates using buffer. The enhancement solution was added to each well and the signal was recorded at excitation
The autophosphorylation percentage inhibition by compounds was calculated using the following equation: Using the curves of percentage inhibition

[8] = Cell viability (cytotoxicity) MTT assay in non-tumorigenic MCF-10A cells; type: cell-based, human; details: human, MCF-10A mammary epithelial cells
BRAF^V600E [9] = details: cited from earlier work
[10] = system: cancer cell proliferation; details: cited from earlier work
EGFR [11] = target: T2, EGFR; parameters: acids645–1186; His6 (N); made in house; host or cells: Sf-9 insect cells (baculovirus; pBlueBacHis2B / pFASTBacHTc); details: cited from earlier work
[12] = Homo sapiens, HT-29, read-out: Antiproliferative Activity IC50 ± SEM, HT-29
[13] = Homo sapiens, MCF7, read-out: Antiproliferative Activity IC50 ± SEM, MCF-7
[14] = Homo sapiens, A549, read-out: Antiproliferative Activity IC50 ± SEM, A-549
[15] = Homo sapiens, PANC-1, read-out: Antiproliferative Activity IC50 ± SEM, Panc-1

Molecule	IC50 [1, 12] [nM]	IC50 (BRAF^V600E [6]) [nM]	IC50 ([2]; Homo sapiens) [nM]	IC50 (EGFR [7]) [nM]	IC50 [3, 13] [nM]	IC50 [4, 14] [nM]	IC50 [5, 15] [nM]	viability at 4 days, 50 µM [8] [%]	IC50 (BRAF^V600E [9]) [nM]	further results
2-((3-Allyl-4-oxo-3,4-dihydroquinazolin-2-yl)thio)-N-(4-(4-(4-bromophenyl)-4-cyano-6-oxo-1,6-dihydropyridin-2-yl)phenyl)acetamide [Compound 20]										IC50 ([1]; read-out: Antiproliferative Activity IC50 ± SEM, HT-29, mean ± SEM): 2100 ± 100 nM; IC50 ([2]; average of IC50 against four cancer cell lines): 2000 nM; IC50 ([3]; read-out: Antiproliferative Activity IC50 ± SEM, MCF-7, mean ± SEM): 1800 ± 100 nM; IC50 ([4]; read-out: Antiproliferative Activity IC50 ± SEM, A-549, mean ± SEM): 2000 ± 100 nM; IC50 ([5]; read-out: Antiproliferative Activity IC50 ± SEM, Panc-1, mean ± SEM): 2100 ± 100 nM; Cell Viability % (MCF-10A cells): 91%
CCn1c(SCC(=O)Nc2ccc(-c3cc(-c4ccc(OC)cc4)c(C#N)c(=O)[nH]3)cc2)nc2ccccc2c1=O [Compound 8, N-(4-(5-Cyano-4-(4-methoxyphenyl)-6-oxo-1,6-dihydropyridin-2-yl)phenyl)-2-((3-ethyl-4-oxo-3,4-dihydroquinazolin-2-yl)thio)acetamide]	1700 ± 100	220 ± 15	1600	160 ± 12	1400 ± 100	1500 ± 100	1700 ± 100	89		
CCn1c(SCC(=O)Nc2ccc(-c3cc(-c4ccc(Cl)cc4)c(C#N)c(=O)[nH]3)cc2)nc2ccccc2c1=O [Compound 9, N-(4-(4-(4-Chlorophenyl)-5-cyano-6-oxo-1,6-dihydropyridin-2-yl)phenyl)-2-((3-ethyl-4-oxo-3,4-dihydroquinazolin-2-yl)thio)acetamide]	2000 ± 100	290 ± 20	1800	190 ± 15	1600 ± 100	1800 ± 100	2000 ± 100	96		
N#Cc1c(-c2ccc(F)cc2)cc(-c2ccc(NC(=O)CSc3nc4ccccc4c(=O)n3-c3ccccc3)cc2)[nH]c1=O [Compound 16, N-(4-(5-Cyano-4-(4-fluorophenyl)-6-oxo-1,6-dihydropyridin-2-yl)phenyl)-2-((4-oxo-3-phenyl-3,4-dihydroquinazolin-2-yl)thio)acetamide]	5100 ± 500		4900		4700 ± 400	4800 ± 500	5100 ± 500	89		
C=CCn1c(SCC(=O)Nc2ccc(-c3cc(-c4ccccc4)c(C#N)c(=O)[nH]3)cc2)nc2ccccc2c1=O [Compound 17, 2-((3-Allyl-4-oxo-3,4-dihydroquinazolin-2-yl)thio)-N-(4-(5-cyano-6-oxo-4-phenyl-1,6-dihydropyridin-2-yl)phenyl)acetamide]	9000 ± 700		8600		8100 ± 700	8400 ± 700	8900 ± 700	89		
C=CCn1c(SCC(=O)Nc2ccc(-c3cc(-c4ccc(OC)cc4)c(C#N)c(=O)[nH]3)cc2)nc2ccccc2c1=O [Compound 18, 2-((3-Allyl-4-oxo-3,4-dihydroquinazolin-2-yl)thio)-N-(4-(5-cyano-4-(4-methoxyphenyl)-6-oxo-1,6-dihydropyridin-2-yl)phenyl)acetamide]	1300 ± 100	140 ± 10	1200	110 ± 10	1000 ± 100	1100 ± 100	1300 ± 100	90		fold less potent than Erlotinib, BRAF^V600E (BRAF^V600E [6]): 2 fold; fold less potent than Erlotinib, EGFR (EGFR [7]): 1.4 fold
C=CCn1c(SCC(=O)Nc2ccc(-c3cc(-c4ccc(Cl)cc4)c(C#N)c(=O)[nH]3)cc2)nc2ccccc2c1=O [Compound 19, 2-((3-Allyl-4-oxo-3,4-dihydroquinazolin-2-yl)thio)-N-(4-(4-(4-chlorophenyl)-5-cyano-6-oxo-1,6-dihydropyridin-2-yl)phenyl)acetamide]	1600 ± 100	190 ± 12	1400	140 ± 11	1200 ± 80	1300 ± 100	1600 ± 100	91		fold less potent than Erlotinib, BRAF^V600E (BRAF^V600E [6]): 3 fold; fold less potent than Erlotinib, EGFR (EGFR [7]): 1.8 fold
C=CCn1c(SCC(=O)Nc2ccc(-c3cc(-c4ccc(F)cc4)c(C#N)c(=O)[nH]3)cc2)nc2ccccc2c1=O [Compound 21, 2-((3-Allyl-4-oxo-3,4-dihydroquinazolin-2-yl)thio)-N-(4-(5-cyano-4-(4-fluorophenyl) -6-oxo-1,6-dihydropyridin-2-yl)phenyl)acetamide]	2200 ± 100		2100		1900 ± 100	2100 ± 200	2200 ± 200	87		
COc1ccc(-c2cc(-c3ccc(OC)c(OC)c3)n(CC(=O)Nc3ccc(C4=NNC(c5ccc(OC)c(OC)c5)C4)cc3)c(=O)c2C#N)cc1OC (stereo not shown) [III]									65	GI50 [10]: 25 nM
C=CCn1c(SCC(=O)Nc2cccc(C(=O)/C=C/c3ccc(OC)cc3)c2)nc2ccccc2c1=O [II]									650	IC50 (EGFR [11]): 110 nM
COc1ccc(/C=C/C(=O)c2ccc(NC(=O)Cn3c(-c4ccc(OC)c(OC)c4)cc(-c4ccc(OC)c(OC)c4)c(C#N)c3=O)cc2)cc1 [IV]									58	GI50 [10]: 720 nM

Reference: article PMC10674657, “Quinazolin-4-one/3-cyanopyridin-2-one Hybrids as Dual Inhibitors of EGFR and BRAF^V600E: Design, Synthesis, and Antiproliferative Activity” (Pharmaceuticals, 2023)
